Results from patent US6613317B1, “Volatile attractants for diabrotica species” (priority 1988, dated 2003).

How the values were obtained:
[1] = test system: southern corn rootworm (SCR) adults; assay: Sticky trap attraction in sweet corn plots (Example 1); assay type: in vivo, Diabrotica undecimpunctata howardi; conditions: August first year, single compounds 100 mg per trap
Outline: (§1)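 Field trapping in sweet-corn plots beside a Blue Hubbard squash trap crop; lures on mineral-oil-impregnated cotton wicks atop sticky paper-carton traps on 1-m posts, 4 replicates in randomized complete blocks. Beetles counted after 24 h; VIPAE/VIP/TIC mixtures and single components at 1–300 mg per trap, ANOVA/Duncan at P=0.05.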

[2] = test system: western corn rootworm (WCR) adults; assay: as above; assay type: in vivo, Diabrotica virgifera virgifera; conditions: August first year, single compounds 100 mg per trap
Outline: as §1

D. u. howardi adults = assay type: in vivo, Diabrotica undecimpunctata howardi; conditions: 1% incorporated into TEX×PEP bait, petri-dish tests
Excerpt: A noncucurbit carrier, 10-mesh corn grits (71% of which passed through a 2-mm screen), was obtained from Illinois Cereal Mills, Paris, Ill. (designated as pesticide carrier grits, 980). This carrier was impregnated with different levels of cucurbitacins by addition of varying amounts of a chloroform extract of AND×MAX fruit containing 0.12% cucurbitacins B and D (Metcalf, et al., Proc. Natl. Acad. Sci. USA, 77:3769-3772 (1980), Metcalf, et al., Environ. Entomol., 11:921-927 (1982)). The cucurbitacin-containing areas were scraped from plates, extracted in anhydrous methanol, centrifuged, and the UV absorption at 210 nm determined by UV spectrophotometry. Content of cucurbitacins was quantified from standard curves of pure cucurbitacins B, D, E and I, and E-glycoside (Metcalf, et al., Proc. Natl. Acad. Sci. USA, 77:3769-3772 (1980), Metcalf, et al., Environ. Entomol., 11:921-927 (1982)).
The various dried, ground, and insecticide-treated baits were given preliminary field evaluation by placing uniform amounts in petri-dish halves (150-mm diameter) that were placed at random on the ground in cucurbit and corn rows heavily infested ith SCR, WCR, and SCB adults. Ten dishes were used for each treatment; the maximum dosage of dried baits used was 300 mg per dish, equivalent to […]. Mortality counts of adult beetles in the dishes were made after 20-40 h.

WCR = assay: Limit of response rating of squash blossom volatiles on sticky traps (Example 5); assay type: in vivo, Diabrotica virgifera virgifera; conditions: 24 hour; four replicate traps; 0.01 mg to 200 mg
Outline: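 Adult Diabrotica beetles were tested against cylindrical sticky traps baited with cotton wicks holding 0.01 mg to 200 mg of individual Cucurbita maxima blossom volatiles. Response limit rated by trap catch.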

NCR = assay: Attraction to baited traps relative to controls (summary); assay type: in vivo, Diabrotica barberi; conditions: summary statement
Excerpt: 4-Methylphenylethanol, 4-chlorophenylethanol, 4-fluorophenylethanol, phenylethanol, phenylpropanol, 4-methoxyphenylethanol, 3-methoxyphenylethanol, 2-methoxyphenylethanol, 4-methoxyphenylpropanol, phenylethylamine, and phenylpropylamine attract NCR at rates approximately 5-50 times controls.

[3] = South Farms, 24 h, mixture 20 mg of each component, n = 4

SMILES	Mean number of SCR per trap (±standard deviation) [1, 3]	relative percent activity of the mean SCR trap catch as compared with the highest mean value in the column ([1]; mixture 20 mg each component)	Mean number of WCR per trap (±standard deviation) [2, 3]	relative percent activity of the mean WCR trap catch as compared with the highest mean value in the column ([2]; mixture 20 mg each component)	increase in the kill of SCR beetles (D. u. howardi adults)	Attractant Rating WCR (by limit of response) (WCR)	rate of attraction of NCR relative to controls (NCR)
C=CCc1ccc(O)c(OC)c1 [XXIV, eugenol]	2.8 ± 2.8 per trap	13%	2.8 ± 1.0 per trap	41%	4 fold	–	–
OCC=Cc1ccccc1 [XVIII, cinnamyl alcohol]	–	–	–	–	–	+1 (30-100)	5-20 times
